# From patent US10703698B2, “Compounds which activate estrogen receptors and compositions and methods of using the same” (The Board of Trustees of the University of Illinois, priority 2016, dated 2020)
# Entries after “also recorded” stand apart in the source; their conditions may differ.
# Experiments:
# [1] = system: MCF-7 cells; assay: RNA-Seq transcriptional profiling of MCF-7 cells; type: cell-based, human; settings: for number of genes regulated: 10 nM E2 or 1 μM PaPE-1
# Method: For gene expression analysis, total RNA was extracted from 3 biological replicates for each ligand treatment using Trizol reagent and further cleaned using the RNAeasy kit (QIAGEN). […] Once the sample quality and replicate reproducibility were verified, 2 samples from each group were subjected to sequencing. RNA at a concentration of 100 ng/μL in nuclease-free water was used for library construction. cDNA libraries were prepared with the mRNA-TruSeq Kit (Illumina, Inc.). Briefly, the poly-A containing mRNA was purified from total RNA, RNA was fragmented, double-stranded cDNA was generated from fragmented RNA, and adapters were ligated to the ends.
# The paired-end read data from the HiSeq 2000 were processed and analyzed through a series of steps. Base calling and de-multiplexing of samples within each lane were done with Casava 1.8.2. FASTQ files were trimmed using FASTQ Trimmer (version 1.0.0). TopHat2 (version 0.5) was employed to map paired RNA-Seq reads to version hg19 of the Homo sapiens reference genome in the UCSC genome browser in conjunction with the RefSeq genome reference annotation. Gene expression values (raw read counts) from BAM files were calculated using StrandNGS (version 2.1) Quantification tool. Partial reads were considered and option of detecting novel genes and exons was selected. Default parameters for finding novel exons and genes were specified. DESeq normalization algorithm using default values was selected. Differentially expressed genes were then determined by fold-change and p-value with Benjamini and Hochberg multiple test correction for each gene for each treatment relative to the vehicle control. Genes with fold-change >2 and p-value <0.05 were considered as statistically significant, differentially expressed. All RNA-Seq datasets have been deposited with the NCBI under GEO accession number GSE73663.
# [2] = system: ovariectomized mice; assay: carotid artery reendothelialization after perivascular electric injury; type: in vivo
# Method: Carotid artery reendothelialization was studied following perivascular electric injury in mice by assessing Evans blue dye uptake 72 h after injury. Endothelial denudation and recovery after injury in this model have been confirmed by immunohistochemistry for von Willebrand Factor. […] Carotid artery denudation was performed 21d later. In select studies additional treatments included subcutaneous injections of vehicle or ICI 182,780 (360 μg/mouse) administered 3d prior to carotid injury and on the day of injury. At the end of the study, uteri were also harvested and weighed.
# [3] = system: ovariectomized C57BL/6 mice; assay: ovariectomized mice: uterus, thymus and mammary gland effects
# [4] = system: ovariectomized C57BL/6 mice; assay: stroke model, transient middle cerebral artery occlusion (tMCAo)
# [5] = system: eNOS; assay: eNOS activation in primary endothelial cells (14C-L-arginine to 14C-L-citrulline); type: cell-based, bovine; settings: 1 μM ICI 182,780; listed as ICI
# [6] = system: LRRC54 gene; assay: LRRC54 (non-genomic gene) mRNA expression, qPCR; settings: MCF-7 cells, 1 μM ICI pretreatment, 1 μM PaPE-1
# [7] = system: MCF-7 cells; assay: oleic acid (OA)-induced MCF-7 cell proliferation, WST1; settings: for OA-induced MCF-7 cell proliferation with added agent: 100 nM OA, agent 1 μM, 6 days
# [8] = system: MCF-7 cells; assay: MCF-7 proliferation in serum from obese individuals or standard culture; settings: 1 μM, six days
# [9] = system: MCF-7 cells; assay: RNA-Seq of MCF-7 cells treated with OA with and without PaPE-1; type: cell-based, human; settings: 100 nM OA, 24 h
# Method: FIG. 38. Identification of genes induced by OA and PaPE-1's effect on the gene regulation. (A) RNA-Seq analysis of gene expression changes induced by OA and OA+PaPE1. Heat map of the genes with significant changed expression. MCF-7 cells were treated with Veh or 100 nM OA with and without 1 μM PaPE-1 for 24 h. RNA was isolated and RNA-Seq was performed using 2 samples from each treatment group. Differentially regulated genes were determined with p<0.05 and expression fold change >2. (B) Clusters from A. regulated by OA and reversed by PaPE-1. The average gene expression level of the cluster1 (C1) and 2 (C2) identified as PaPE-1 regulated high-fat genes. In C1, there are 425 genes whose expression were found stimulated in OA but not in the OA+PaPE-1 treatment. In C2, there are 646 genes whose expression were found suppressed in the OA but restored by OA+PaPE-1 treatment. (C) Venn diagram analysis. […] (D) Examples of OA-regulated genes. Some of the top functions of the involved genes are presented.
# [10] = system: ERα recruitment to chromatin; assay: ERα ChIP-Seq of MCF-7 cells treated with OA with or without PaPE-1; type: cell-based, human; settings: 100 nM OA, 45 minutes
# Method: FIG. 39. ERα chromatin binding sites induced by OA and the effect of PaPE-1 in reversing these changes in the ERα cistrome. (A) Recruitment of ERα to chromatin in the presence of PaPE-1, OA and OA+PaPE-1. MCF-7 cells were treated with Veh and 100 nM OA with or without 1 μM PaPE-1 for 45 minutes. ERα-DNA complexes were pulled down using ERα antibodies. Three biological replicates were pooled and sequenced. Clustering of ERα binding sites in treatments of Veh (0.1% EtOH), PaPE-1 (1 μM), OA (100 nM), and OA (100 nM)+PaPE-1 (1 t.M) was done using seqMINER software. (B) Validation of effect of OA and PaPE-1 on the ERα binding at regulatory region of PgR, CISH and SREBP1C using ChIP-qPCR. MCF-7 cells were treated with Veh and 100 nM OA with or without 1 μM PaPE-1 for 45 minutes. ERα-DNA complexes were pulled down using ERα antibodies. Recruitment of ERα to PgR (chr11:100,904,522-100,905,458), CISH (chr3:50,642,336-50,643,191) and SREBP1 (chr17:17,743,329-17,743,912) sites were quantified by Q-PCR. The experiment was repeated 3 times with at least duplicates each time. Mean±SEM is plotted. […] Mean±SEM is plotted. (C) Binding sites whose ERα occupation increased upon OA treatment (cluster marked by * in B). The ERα binding sites were separated into four clusters of characteristic patterns: C1, C2, C3 and C4. […]
# [11] = system: mTOR pathway; assay: OA-induced mTOR pathway activation in MCF-7 cells, western blot; settings: 100 nM OA, time course
# [12] = system: ERα-SRC3 interaction; assay: tr-FRET assay of SRC3 coactivator binding to ERα; type: biochemical; settings: 10 nM E2-ERα complex
# Text: Using a time-resolved Forster resonance energy transfer (tr-FRET) assay, the binding of the steroid receptor coactivator 3 (SRC3) to ERu was monitored.
# [13] = system: PgR gene; assay: PgR (genomic gene) mRNA expression, qPCR; settings: MCF-7 cells; 1 μM PaPE or 10 nM E2 for 4 h where stated; versus vehicle or E2
# [14] = system: LRRC54 gene vs PgR gene; assay: preferential activation of non-genomic (LRRC54) over genomic (PgR) gene; settings: relative to activation by E2
compound,measurement,setting,value
"C[C@]12CC[C@@H]3c4ccc(O)cc4CC[C@H]3[C@@H]1CC[C@@H]2O [Compound E2, estradiol, reference compound]",regulated genes blocked by MAPK inhibitor AZD6244,"[1]; 1 μM AZD6244, 4 h",23%
same,regulated genes blocked by mTOR pathway inhibitor PP242,"[1]; 1 μM PP242, 4 h",40%
same,number of genes regulated,[1]; 4 h,~1500 genes
same,number of genes regulated,[1]; 24 h,about 3000 genes
same,uterine weight in reendothelialization study,"[2]; mouse, in vivo",greatly elevated; also recorded: increases uterine weight
same,mammary gland ductal morphology,[3]; 3 weeks,elicited marked ductal growth
same,uterine weight,"[3]; E2 5 μg/day, PaPE up to 300 μg/day",very effective in increasing growth of the uterus; also recorded: markedly increased
same,reduction of leukocytes infiltrated in the brain,[4]; 3 days post-stroke,63%
same,uterine wet weight,[4]; compared with vehicle,caused an increase in uterine wet weight
"C[C@]12CC[C@@H]3c4ccc(O)cc4C[C@@H](CCCCCCCCC[S+]([O-])CCCC(F)(F)C(F)(F)F)[C@H]3[C@@H]1CC[C@@H]2O (stereo partly shown) [ICI 182,780, Fulvestrant]",endothelial repair responses elicited by E2 and PaPE-1 with antiestrogen,"[2]; ICI 182,780 360 μg/mouse",fully prevented
same,uterine stimulation by E2 with antiestrogen,"[2]; mouse, in vivo",blocked uterine stimulation by E2
same,eNOS / NOS stimulation by E2 and PaPEs with antiestrogen,[5],fully attenuated; also recorded: fully blocked
same,activation of LRRC54 gene expression by PaPE-1 in presence of antiestrogen,[6],blocked
same,OA-induced MCF-7 cell proliferation with added agent,[7],blocked OA-induced cell proliferation; also recorded: suppressed
same,inhibition of MCF-7 proliferation in normal cell culture conditions,[8],better agents
"CCCCCCCC/C=C\CCCCCCCC(=O)O [OA, oleic acid]",genes downregulated by OA,[9],about 500 genes
same,genes upregulated by OA,[9],about 350 genes
same,ERα recruitment to chromatin upon OA,[10],recruited to novel chromatin sites upon OA treatment
same,MCF-7 cell proliferation with free fatty acid,[7]; 1 and 100 nM,very efficient in increasing cell proliferation in MCF-7 cells
same,mTOR pathway activation by OA,[11],"robust activation of mTOR pathway downstream targets Akt, S6 and 4EBP1"
"CC/C(=C(\c1ccc(O)cc1)c1ccc(OCCN(C)C)cc1)c1ccccc1 [OH-Tam, trans-hydroxytamoxifen, reference compound]",reversal of the E2-promoted ER-SRC3 interaction,[12],reversed the ER-SRC3 interaction promoted by E2
same,"PgR (genomic gene) mRNA expression, in words",[13],slight stimulation of the PgR gene
same,OA-induced MCF-7 cell proliferation with added agent,[7]; listed as 4-OH-Tamoxifen,blocked OA-induced cell proliferation; also recorded: suppressed
same,"preference for activation of the non-genomic pathway (LRRC54 over PgR), in words",[14],Neither Raloxifene (RAL) nor hydroxytamoxifen (TOT) show selective activation of the non-genomic gene LRRC54
same,inhibition of MCF-7 proliferation in normal cell culture conditions,[8],better agents
